Source: ChEMBL document CHEMBL1201862, “PubChem BioAssay data set” (2004)
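Results reflect a 48-hour exposure of cells in 96-well plates to compound at five concentrations. Abbreviation: GI50, concentration required for 50% inhibition of growth.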 The source made the active and inactive calls. Cut-off read from the data, not from the text of the source: active = GI50 up to about 1.1 µM and inactive = higher.

Columns and labels:
Experiment in all cases: NCI anticancer screen, dose series, 48 h
A498 = test system: A498
CAKI-1 = test system: CAKI-1
EKVX = test system: EKVX
HCC 2998 = test system: HCC 2998
HOP-62 = test system: HOP-62
HT-29 = test system: HT-29
IGROV-1 = test system: IGROV-1
MDA-MB-231 = test system: MDA-MB-231
MDA-N = test system: MDA-N
MOLT-4 = test system: MOLT-4
NCI-H460 = test system: NCI-H460
NCI/ADR-RES = test system: NCI/ADR-RES
OVCAR-3 = test system: OVCAR-3
OVCAR-5 = test system: OVCAR-5
RPMI-8226 = test system: RPMI-8226
RXF 393 = test system: RXF 393
SF-268 = test system: SF-268
SK-MEL-2 = test system: SK-MEL-2
UACC-257 = test system: UACC-257
HL-60 = test system: HL-60

Measured: GI50

CC(=O)Nc1ccc2cc3[nH]c4cc(NC(C)=O)ccc4c3nc2c1
inactive: A498 > 100 µM | CAKI-1 > 100 µM | EKVX > 100 µM | HCC 2998 > 100 µM | HOP-62 > 100 µM | HT-29 > 100 µM | IGROV-1 > 100 µM | MDA-MB-231 > 100 µM | MDA-N > 100 µM | MOLT-4 24.9 µM | NCI-H460 > 100 µM | NCI/ADR-RES > 100 µM | OVCAR-3 > 100 µM | OVCAR-5 > 100 µM | RPMI-8226 > 100 µM | RXF 393 > 100 µM | SF-268 > 100 µM | SK-MEL-2 > 100 µM | UACC-257 > 100 µM

O[C@H]1[C@H](O)[C@@H](O)[C@@]2(O)CC[C@@H]1N2
inactive: A498 > 100 µM | CAKI-1 > 100 µM | EKVX > 100 µM | HCC 2998 > 100 µM | HOP-62 > 100 µM | HT-29 > 100 µM | IGROV-1 > 100 µM | MDA-MB-231 > 100 µM | MDA-N > 100 µM | MOLT-4 > 100 µM | NCI-H460 > 100 µM | NCI/ADR-RES > 100 µM | OVCAR-3 > 100 µM | OVCAR-5 > 100 µM | RXF 393 > 100 µM | SF-268 > 100 µM | SK-MEL-2 > 100 µM | UACC-257 > 100 µM

CN1C(=O)CN=C(c2ccccc2F)c2cc(N=C=S)ccc21
inactive: A498 26.8 µM | CAKI-1 11.3 µM | EKVX > 100 µM | HCC 2998 50.8 µM | HL-60 34.2 µM | HOP-62 > 100 µM | HT-29 34.2 µM | IGROV-1 38.7 µM | MDA-MB-231 45.8 µM | MDA-N 54.3 µM | NCI-H460 36.6 µM | NCI/ADR-RES 43.1 µM | OVCAR-3 52 µM | OVCAR-5 > 100 µM | RXF 393 36.6 µM | SF-268 67 µM | SK-MEL-2 92.3 µM | UACC-257 43.5 µM

O=C(NNc1ccnc2cc(Cl)ccc12)/C(=C\c1ccccc1Cl)NC(=O)c1ccccc1
inactive: CAKI-1 86.3 µM | EKVX 31.8 µM | HCC 2998 60 µM | HL-60 23.4 µM | HOP-62 19.2 µM | HT-29 47.8 µM | IGROV-1 12.5 µM | MDA-MB-231 74 µM | MDA-N 37.3 µM | NCI-H460 42.1 µM | NCI/ADR-RES 24.9 µM | OVCAR-3 16.5 µM | OVCAR-5 39.7 µM | RPMI-8226 29.2 µM | RXF 393 27.2 µM | SF-268 27.4 µM | SK-MEL-2 19.4 µM | UACC-257 34.1 µM

CCNC(=S)N/N=C/c1cc([N+](=O)[O-])ccc1O
inactive: A498 13.2 µM | EKVX 30.4 µM | HCC 2998 16.2 µM | HL-60 11.9 µM | HOP-62 32.7 µM | HT-29 41.8 µM | IGROV-1 22.4 µM | MDA-MB-231 33 µM | MDA-N 46.5 µM | MOLT-4 8.73 µM | NCI-H460 9.27 µM | NCI/ADR-RES 21.8 µM | OVCAR-5 > 100 µM | RXF 393 62.2 µM | SF-268 24.3 µM | SK-MEL-2 > 100 µM | UACC-257 24.6 µM

O=C(O)CCC(/N=C(\C(=N\C(CCC(=O)O)C(=O)O)c1ccccc1)c1ccccc1)C(=O)O (centres undefined)
inactive: A498 > 100 µM | EKVX > 100 µM | HCC 2998 > 100 µM | HOP-62 > 100 µM | MDA-MB-231 > 100 µM | MDA-N > 100 µM | MOLT-4 > 100 µM | NCI-H460 > 100 µM | NCI/ADR-RES > 100 µM | OVCAR-3 > 100 µM | OVCAR-5 > 100 µM | RPMI-8226 > 100 µM | RXF 393 > 100 µM | SF-268 > 100 µM | SK-MEL-2 > 100 µM | UACC-257 > 100 µM

Cc1cc(-c2nc3ccc(F)cc3s2)ccc1N
inactive: A498 2.55 µM | CAKI-1 > 100 µM | EKVX 56.5 µM | HCC 2998 38.9 µM | HOP-62 > 100 µM | HT-29 > 100 µM | IGROV-1 1.28 µM | MDA-MB-231 > 100 µM | MDA-N > 100 µM | MOLT-4 > 100 µM | NCI/ADR-RES > 100 µM | OVCAR-3 > 100 µM | OVCAR-5 > 100 µM | RPMI-8226 5.6 µM | RXF 393 49.8 µM | SF-268 > 100 µM | SK-MEL-2 > 100 µM | UACC-257 > 100 µM
